{"source": "patent US20240343755A1", "about": "“STABLE ISOQUINOLINE-CORTICOSTEROID CONJUGATES AND USES THEREOF” (priority 2021, published 2024)", "key": {"[1]": {"test_system": "Human Trabecular Meshwork cells", "assay": "Activity in Human Trabecular Meshwork cells (HTM)", "type": "cell-based", "protocol": "(§1) Activities of certain compounds and components of compounds described herein were assayed. […] Rho-associated protein kinase 2=ROCK2; Rho-associated protein kinase 1=ROCK1; Porcine Trabecular Meshwork cells=PTM; Human Trabecular Meshwork cells=HTM; Splenic Interleukin-23=SPNL IL23; and Tumor Necrosis Factor α=TNFα."}, "[2]": {"target": "Rho-associated protein kinase 1 (ROCK1) (Homo sapiens, UniProt Q13464)", "sequence (Q13464 whole entry, species assumed)": "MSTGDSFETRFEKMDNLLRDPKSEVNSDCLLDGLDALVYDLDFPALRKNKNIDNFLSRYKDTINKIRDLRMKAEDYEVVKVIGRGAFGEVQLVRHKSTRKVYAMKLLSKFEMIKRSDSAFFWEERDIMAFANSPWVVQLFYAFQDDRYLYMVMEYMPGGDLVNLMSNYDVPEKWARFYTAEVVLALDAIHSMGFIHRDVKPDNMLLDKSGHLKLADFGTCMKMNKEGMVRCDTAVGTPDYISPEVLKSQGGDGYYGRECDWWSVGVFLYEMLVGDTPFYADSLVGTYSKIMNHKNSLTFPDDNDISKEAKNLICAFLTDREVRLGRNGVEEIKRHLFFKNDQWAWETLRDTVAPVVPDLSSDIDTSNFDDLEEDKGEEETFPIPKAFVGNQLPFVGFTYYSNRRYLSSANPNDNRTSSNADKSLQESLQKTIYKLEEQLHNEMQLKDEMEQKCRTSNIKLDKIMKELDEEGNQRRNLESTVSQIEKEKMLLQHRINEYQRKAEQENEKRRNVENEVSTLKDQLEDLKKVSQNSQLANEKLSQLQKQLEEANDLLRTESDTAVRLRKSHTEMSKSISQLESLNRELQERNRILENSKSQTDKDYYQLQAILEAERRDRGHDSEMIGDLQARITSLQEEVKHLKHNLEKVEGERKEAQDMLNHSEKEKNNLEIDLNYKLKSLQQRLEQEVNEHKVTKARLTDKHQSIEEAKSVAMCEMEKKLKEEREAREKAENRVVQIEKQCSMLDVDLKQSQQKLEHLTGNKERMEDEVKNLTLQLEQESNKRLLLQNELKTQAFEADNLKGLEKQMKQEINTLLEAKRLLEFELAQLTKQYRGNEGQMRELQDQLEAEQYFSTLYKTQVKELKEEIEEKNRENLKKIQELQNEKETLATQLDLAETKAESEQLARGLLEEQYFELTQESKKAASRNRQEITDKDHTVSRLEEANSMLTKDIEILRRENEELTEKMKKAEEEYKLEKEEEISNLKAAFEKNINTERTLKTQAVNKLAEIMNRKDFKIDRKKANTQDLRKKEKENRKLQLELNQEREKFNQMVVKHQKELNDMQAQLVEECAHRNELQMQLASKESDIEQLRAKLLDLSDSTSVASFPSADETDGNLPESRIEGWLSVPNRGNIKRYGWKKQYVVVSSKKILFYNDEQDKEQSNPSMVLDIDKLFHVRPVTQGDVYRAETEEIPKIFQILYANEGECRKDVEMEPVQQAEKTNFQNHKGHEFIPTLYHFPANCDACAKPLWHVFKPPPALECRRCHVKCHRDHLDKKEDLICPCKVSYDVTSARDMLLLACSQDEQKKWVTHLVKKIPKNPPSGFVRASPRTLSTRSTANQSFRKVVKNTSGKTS", "assay": "In vitro ROCKi activity, ROCK1", "type": "biochemical", "protocol": "as §1"}, "[3]": {"target": "Rho-associated protein kinase 2 (ROCK2) (Homo sapiens, UniProt O75116)", "sequence (O75116 whole entry, species assumed)": "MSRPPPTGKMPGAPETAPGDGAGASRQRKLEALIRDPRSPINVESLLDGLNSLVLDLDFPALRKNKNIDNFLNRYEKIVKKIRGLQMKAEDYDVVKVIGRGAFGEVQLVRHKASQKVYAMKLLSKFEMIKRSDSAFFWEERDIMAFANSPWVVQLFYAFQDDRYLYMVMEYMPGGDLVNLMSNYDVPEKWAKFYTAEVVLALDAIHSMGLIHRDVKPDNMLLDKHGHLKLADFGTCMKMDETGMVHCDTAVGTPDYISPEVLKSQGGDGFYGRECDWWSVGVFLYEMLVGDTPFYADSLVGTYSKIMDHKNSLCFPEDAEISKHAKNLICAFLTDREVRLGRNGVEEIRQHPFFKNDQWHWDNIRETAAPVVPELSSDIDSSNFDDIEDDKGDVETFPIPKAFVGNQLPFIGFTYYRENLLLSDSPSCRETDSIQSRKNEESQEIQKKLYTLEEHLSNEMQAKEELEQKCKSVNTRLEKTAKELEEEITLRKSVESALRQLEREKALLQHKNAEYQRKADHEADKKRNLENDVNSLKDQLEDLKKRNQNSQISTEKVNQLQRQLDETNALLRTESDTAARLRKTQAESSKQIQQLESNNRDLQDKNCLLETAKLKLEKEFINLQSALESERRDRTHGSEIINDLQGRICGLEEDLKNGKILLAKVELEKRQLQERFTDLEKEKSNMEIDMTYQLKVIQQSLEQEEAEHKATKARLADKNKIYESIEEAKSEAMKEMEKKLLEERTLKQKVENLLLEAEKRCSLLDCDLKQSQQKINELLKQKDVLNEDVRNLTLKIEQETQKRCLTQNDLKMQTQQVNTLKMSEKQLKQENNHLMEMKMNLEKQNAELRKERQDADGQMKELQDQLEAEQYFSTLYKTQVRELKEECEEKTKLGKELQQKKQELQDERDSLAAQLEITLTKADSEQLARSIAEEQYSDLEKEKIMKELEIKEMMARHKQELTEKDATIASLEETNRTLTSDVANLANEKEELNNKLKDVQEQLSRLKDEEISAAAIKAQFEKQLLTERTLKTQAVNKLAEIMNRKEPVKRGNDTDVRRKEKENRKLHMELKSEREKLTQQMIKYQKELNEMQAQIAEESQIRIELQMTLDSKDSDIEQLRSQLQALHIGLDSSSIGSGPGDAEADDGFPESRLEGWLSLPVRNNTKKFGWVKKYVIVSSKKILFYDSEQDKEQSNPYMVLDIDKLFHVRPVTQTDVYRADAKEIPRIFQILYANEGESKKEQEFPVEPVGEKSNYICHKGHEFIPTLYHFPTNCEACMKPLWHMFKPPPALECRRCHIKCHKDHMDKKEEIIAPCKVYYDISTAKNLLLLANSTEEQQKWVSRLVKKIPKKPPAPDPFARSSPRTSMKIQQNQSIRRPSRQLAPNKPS", "assay": "In vitro ROCKi activity, ROCK2", "type": "biochemical", "protocol": "as §1"}, "[4]": {"test_system": "Porcine Trabecular Meshwork cells", "assay": "Activity in Porcine Trabecular Meshwork cells (PTM)", "type": "cell-based", "conditions": "Sus scrofa", "protocol": "as §1"}, "Splenic Interleukin-23": {"test_system": "Splenic Interleukin-23", "assay": "In vitro steroid activity, splenic IL-23", "type": "cell-based", "conditions": "read-out: IC50 (nM) SPLN IL23", "protocol": "(§2) Activities of certain compounds and components of compounds described herein were assayed. […] Rho-associated protein kinase 2=ROCK2; […] Porcine Trabecular Meshwork cells=PTM; Human Trabecular Meshwork cells=HTM; Splenic Interleukin-23=SPNL IL23; and Tumor Necrosis Factor α=TNFα."}, "Tumor Necrosis Factor α": {"test_system": "Tumor Necrosis Factor α", "assay": "In vitro steroid activity, TNFα", "type": "cell-based", "conditions": "read-out: IC50 (nM) TNFα", "protocol": "as §2"}, "[5]": {"test_system": "intraocular pressure in normotensive Dutch Belted rabbits", "assay": "Intraocular pressure study in normotensive Dutch Belted rabbits", "type": "in vivo", "conditions": "single dose E5 0.1% or 0.25%", "protocol": "E5 was formulated in 3.5% or 6.5% sulfobutylether-β-cyclodextrin (SBEβCD), 10 mM PBS, pH 6 and filtered with a 0.2 μm PVDF filter. A single dose was administered and the intraocular pressure was measured, e.g., with a pneumatonometer, for 32 hours post-dose."}, "[6]": {"test_system": "Allergic Eye Disease (AED) in wildtype C57Bl/6 mice", "assay": "Chronic/severe allergic eye disease (AED) model, Meibomian gland dysfunction", "type": "in vivo", "conditions": "0.1% E5 in SBEβCD, topical BID 5 uL", "protocol": "E5 was formulated in 5% sulfobutylether-β-cyclodextrin (SBEβCD), 10 mM PBS (0.1% NaCl) solution, pH 6 and filtered with a 0.2 μm PVDF filter. AED was induced in wildtype C57Bl/6 mice. Animals were immunized with one intraperitoneal (i.p) injection of 100 μg of OVA (InvivoGen) in 300 ng of pertussis toxin (List Biologicals) and 4 mg of aluminum hydroxide (Alum, Thermo Fisher Scientific Pierce) on Day 0. Two weeks later, mice were treated topically QD with 5 μL OVA (50 μg/μL) in sterile saline for 5 days. Mice were treated topically BID with 5 uL of vehicle (10% SBEβCD), Lotemax® (Bausch & Lomb; loteprednol etabonate ophthalmic gel 0.5%) or 0.1% E5 in SBEβCD (50:1). The first treatment was administered on Day 14 (2 weeks after initial immunization), 10 minutes prior to OVA instillation followed by a second dose >7 hrs thereafter.\nAssessment was carried out following euthanasia. All four lids were gently inverted under a dissection microscope to expose the posterior lid margin. The number of plugs on the upper and lower eyelids are analyzed and scored for severity as follows: 0 indicates no plug, 1+ indicates appearance of plug. 2+ is assigned to a plug that obstructs the entire MG (Meibomian gland) orifice, 3+ is a plug with a dome that rises above the plane of the eyelid margin, and a 4 is given to a plug that covers a larger surface than the MG orifice (usually with irregular circumference edges).\nClinical parameters including eyelid edema, chemosis, conjunctival redness, and tearing were each scored on a scale of 0-3+. A score of 0 indicated no evidence of the respective parameter, 1+ is assigned if the response is mild, but distinctly greater than the naive controls; 2+ for a moderate change in the respective parameters that could be noted by slit-lamp microscopy, but not with naked eye; and 3+ if the response is severe enough that could be perceived with naked eye.\nResults are shown in FIG. 9, FIG. 10, and FIG. 11."}, "[7]": {"test_system": "corneal epithelium debridement in C57/B1/6 mice", "assay": "In vivo PK/PD ocular surface corneal wound healing model", "conditions": "0.1% E5 in SBEβCD", "protocol": "E5 was formulated in 3.5% sulfobutylether-β-cyclodextrin (SBEβCD), 10 mM PBS, pH 6 and filtered with a 0.2 μm PVDF filter.\nAnesthetized animals (8-10 weeks old male C57/B1/6 mice) were placed under a dissecting microscope and eyes proposed. Corneas of OD eyes were demarcated by centrally, and softly, marking the perimeters of the debridement area with a 2 mm trephine. A 10 μL drop of PBS was placed on the eye and an Algerbrush with a 0.5 mm burr attachment was utilized to carefully remove the epithelium within the demarcated area of the cornea. Topical fluorescein (Sigma) was applied, and excess fluorescein flushed prior to capture of a baseline image of the wound (time=0). Topical treatments were administered at t=0 and t=6 hours post-injury by applying 5 µL to the surface of the debrided eye. Fluorescein-stained corneas were imaged again 24 h after injury. Percent re-epithelialization was assessed by analysis of imaged corneas with Image J (NIH, Bethesda, MD).\n0.1% dexamethasone and 0.5% loteprednol were used as positive clinically relevant controls."}}, "note": "Counter-ions that a name gives are not always drawn. Like-named read-outs stand apart in the source and are kept apart here."}
{"molecule": "NC[C@@H](C(=O)Nc1ccc2cnccc2c1)c1ccc(CO)cc1", "note": "[A, reference compound]", "values": [{"measurement": "IC50", "setting": "[1]", "value": 5, "unit": "nM"}, {"measurement": "IC50", "setting": "[2]", "value": 1.7, "unit": "nM"}, {"measurement": "IC50", "setting": "[3]", "value": 0.99, "unit": "nM"}, {"measurement": "IC50", "setting": "[4]", "value": 13, "unit": "nM"}]}
{"molecule": "CC1(C)O[C@@H]2C[C@H]3[C@@H]4CCC5=CC(=O)C=C[C@]5(C)[C@@]4(F)[C@@H](O)C[C@]3(C)[C@]2(C(=O)CO)O1", "note": "[C, Triamcinolone, reference compound]", "values": [{"measurement": "IC50", "setting": "Splenic Interleukin-23; Splenic Interleukin-23", "value": 0.93, "unit": "nM"}, {"measurement": "IC50", "setting": "Tumor Necrosis Factor α", "value": 0.51, "unit": "nM"}]}
{"molecule": "CC1(C)O[C@@H]2C[C@H]3[C@@H]4CCC5=CC(=O)C=C[C@]5(C)[C@@]4(F)[C@@H](O)C[C@]3(C)[C@]2(C(=O)COC(=O)CCCC(=O)OCc2ccc([C@@H](CN)C(=O)Nc3ccc4cnccc4c3)cc2)O1", "note": "[Example E5, 4-((S)-3-amino-1-(isoquinolin-6-ylamino)-1-oxopropan-2-yl)benzyl (2-((6aS,6bR,7S,8aS,8bS,11aR,12aS,12bS)-6b-fluoro-7-hydroxy-6a,8a,10,10-tetramethyl-4-oxo-1,2,4,6a,6b,7,8,8a,11a,12,12a,12b-dodecahydro-8bH-naphtho[2′,1′:4,5]indeno[1,2-d][1,3]dioxol-8b-yl)-2-oxoethyl) glutarate dihydrochloride]", "values": [{"measurement": "hyperemia", "setting": "[5]; Dutch belted rabbits", "value": "no hyperemia observed"}, {"measurement": "intraocular pressure (IOP)", "setting": "[5]; measured for 32 hours post-dose, FIG. 14, FIG. 15", "value": "lowered IOP in a dose-dependent manner"}, {"measurement": "IC50", "setting": "Splenic Interleukin-23", "value": 1, "unit": "nM"}, {"measurement": "Meibomian gland orifice plugging (number and severity of MG plugs)", "setting": "[6]; FIG. 10", "value": "effective in lowering both the number and severity of the MG plugs compared to both vehicle and loteprednol"}, {"measurement": "neutrophil levels in Meibomian gland and conjunctiva", "setting": "[6]; FIG. 11", "value": "reduced the number of neutrophils in the Meibomian gland and conjunctiva"}, {"measurement": "clinical scoring (eyelid edema, chemosis, conjunctival redness, tearing)", "setting": "[6]; better than loteprednol gel, significance on day 4, FIG. 9", "value": "statistically significantly improved compared to vehicle"}, {"measurement": "IC50", "setting": "[2]", "value": 9, "unit": "nM"}, {"measurement": "IC50", "setting": "[3]; read-out: IC50 (nM) ROCK2", "value": 9, "unit": "nM"}, {"measurement": "IC50", "setting": "[4]", "value": 55, "unit": "nM"}, {"measurement": "re-epithelialization (recovery of epithelium)", "setting": "[7]; 24 h after epithelium debridement, FIG. 12", "value": "did not affect the recovery of epithelium"}, {"measurement": "myeloperoxidase (MPO) levels (eye surface inflammation)", "setting": "[7]; topical 5 µL at t=0 and t=6 hours post-injury, FIG. 13", "value": "significantly reduced the cornea inflammation in comparison to PBS (phosphate-buffered saline) vehicle and loteprednol groups"}, {"measurement": "IC50", "setting": "Tumor Necrosis Factor α", "value": 10, "unit": "nM"}]}
{"molecule": "C[C@@H]1C[C@H]2[C@@H]3CCC4=CC(=O)C=C[C@]4(C)[C@@]3(F)[C@@H](O)C[C@]2(C)[C@@]1(O)C(=O)CO", "note": "[B, Dexamethasone, reference compound]", "values": [{"measurement": "IC50", "setting": "[1]", "value": "≥ 3000", "unit": "nM"}, {"measurement": "IC50", "setting": "Splenic Interleukin-23; Splenic Interleukin-23", "value": 4.6, "unit": "nM"}, {"measurement": "IC50", "setting": "[4]", "value": "≥ 3000", "unit": "nM"}, {"measurement": "IC50", "setting": "Tumor Necrosis Factor α", "value": 47, "unit": "nM"}]}
{"molecule": "C[C@@H]1C[C@H]2[C@@H]3CCC4=CC(=O)C=C[C@]4(C)[C@@]3(F)[C@@H](O)C[C@]2(C)[C@@]1(O)C(=O)COC(=O)CCCC(=O)OCc1ccc([C@@H](CN)C(=O)Nc2ccc3cnccc3c2)cc1", "note": "[Example E15]", "values": [{"measurement": "IC50", "setting": "Splenic Interleukin-23; Splenic Interleukin-23", "value": 12, "unit": "nM"}, {"measurement": "IC50", "setting": "[2]", "value": 7, "unit": "nM"}, {"measurement": "IC50", "setting": "[3]; read-out: IC50 (nM) ROCK2", "value": 4, "unit": "nM"}, {"measurement": "IC50", "setting": "[4]", "value": 40, "unit": "nM"}, {"measurement": "IC50", "setting": "Tumor Necrosis Factor α", "value": 147, "unit": "nM"}]}
